{"source": "patent US20160287514A1", "about": "(PIERRE FABRE MEDICAMENT, priority 2012, published 2016)", "key": {"[1]": {"format": "physicochemical"}, "[2]": {"conditions": "in vivo; cited from earlier work"}, "pharyngitis": {"system": "pharyngitis", "conditions": "ibuprofen 400 mg; meta-analysis; cited from earlier work"}}, "note": "Read-outs that look alike come from different tables or passages of the source."}
{"compound": "CC(C)Cc1ccc(C(C)C(=O)O)cc1.O.O.[Na]", "note": "(centres unmarked) [Sod, ibuprofen sodium dihydrate]", "values": [{"measurement": "content of impurities compared among the salts", "setting": "[1]; regardless of the long term temperature and humidity conditions", "result": "lowest content of impurities"}]}
{"compound": "CC(C(=O)O)c1ccc(-c2ccccc2)c(F)c1", "note": "(centres unmarked) [flurbiprofen]", "values": [{"measurement": "half-life", "setting": "[2]", "result": 4, "unit": "h"}]}
{"compound": "CC(C)Cc1ccc(C(C)C(=O)O)cc1", "note": "(centres unmarked) [ibuprofen, 2-(4-(2-methylpropyl)phenyl)propanoic acid]", "values": [{"measurement": "pain relief in pharyngitis compared with acetaminophene (1000 mg, paracetamol)", "setting": "pharyngitis", "result": "significant superiority"}]}
{"compound": "ibuprofen lysinate", "values": [{"measurement": "total content of impurities", "setting": "[1]; T0, closed pill box", "result": "<0.1", "unit": "percentage"}, {"measurement": "total content of impurities", "setting": "[1]; T1 month, 25° C., RH 60, closed pill box", "result": 0.15, "unit": "percentage"}, {"measurement": "total content of impurities", "setting": "[1]; T1 month, 40° C., RH 75, closed pill box", "result": 0.19, "unit": "percentage"}, {"measurement": "total content of impurities", "setting": "[1]; T1 month, 40° C., RH 75, open pill box", "result": 0.53, "unit": "percentage"}, {"measurement": "total content of impurities", "setting": "[1]; T2 months, 25° C., RH 60, closed pill box", "result": 0.15, "unit": "percentage"}, {"measurement": "total content of impurities", "setting": "[1]; T2 months, 40° C., RH 75, closed pill box", "result": 0.21, "unit": "percentage"}, {"measurement": "total content of impurities", "setting": "[1]; T2 months, 40° C., RH 75, open pill box", "result": 2.21, "unit": "percentage"}, {"measurement": "total content of impurities", "setting": "[1]; T3 months, 25° C., RH 60, closed pill box", "result": 0.17, "unit": "percentage"}, {"measurement": "total content of impurities", "setting": "[1]; T3 months, 40° C., RH 75, closed pill box", "result": 0.27, "unit": "percentage"}, {"measurement": "total content of impurities", "setting": "[1]; T3 months, 40° C., RH 75, open pill box", "result": 3.10, "unit": "percentage"}, {"measurement": "total content of impurities", "setting": "[1]; T15 d, 40° C., RH 75, closed pill box", "result": 0.28, "unit": "percentage"}]}
